According to patent US11731933B2, “Device and method for the desalination of water by means of thermal deionisation and liquid-phase ion extraction liquid” (ADIONICS, priority 2015, dated 2023):
≈ marks a conversion by molar mass, not a printed value. Where “and” joins values, the source holds several entries; their conditions need not be identical. Equal values may be shown once.

How the values were obtained:
pKa in water at 25° C. = format: physicochemical
Experimental: The pKa (or acid constant) is defined as pKa=−log10(Ka), where Ka is the acid dissociation constant which is measured in a standard manner for such pKa. The recommended standard measurement method for high, basic pKa is preferably that described by Popov and al, IUPAC—Guidelines for NMR measurements for determination of high and low pKa Pure Apl. Chem., Vol. 78, No. 3, pp. 663-675, 2006.

[1] = Solubility in water (UV-visible spectrometry); format: physicochemical
Source text: The hydrophobicity or solubility of a compound can be measured by standard methods and in particular by UV-visible spectrometry.

[2] = NaCl extraction from 0.4M NaCl water by ASM + Calix[4]Est in chloroform (Example 11)
Experimental: The extraction composition is obtained by solubilizing an amount of 4-tert-butyl Calix[4]arene tetraethyl Ester (CAS No. 97600-39-0) and ASM in chloroform CHCl3 to obtain a final concentration after solubilization of the CEM and ASM of 0.3 mol/L for Calix[4]Est and of 0.3 mol/L for ASM, respectively. These sealed formulations were then orbitally stirred at 500 rpm for 2 hours after adding an equivalent volume of twice distilled water to allow water saturation of the entire formulation and control of pH output (pH=7). The extraction composition is then put to stand to settle. All the compositions tested are stable and rapidly decanted (a few minutes at the most).
A 0.4 mol/L NaCl aqueous solution was prepared from twice distilled water.
The organic extraction composition is then slightly heated to promote solubilization of the compounds by hot air gun (temperature of about 50 to 60° C.) for a few seconds (10 to 30 seconds) until a clear solution is obtained.
3 mL of the organic extraction composition is then removed from the lower phase of the settled two-phase mixture and transferred to a vial containing 3 mL of salt water at 0.4 M NaCl and then the flask is sealed and orbitally stirred (at 500 revolutions per minute), for 2 hours at room temperature (RT), that is to say between 20 and 25° C. In the case of extraction at 60° C., magnetic stirring (at 500 revolutions per minute), for 2 hours, is carried out with indirect heating in a metal mold on a heating plate. It is verified that droplets of the order of 1-2 mm are present during these agitations in order to be certain to achieve equilibrium in the NaCl distribution between the two liquid phases at the end of stirring. The appearance of the organic and aqueous phases is clear and colorless or slightly cloudy.
After stirring for 2 hours, stirring is stopped and the solution is put to stand to settle within 10 minutes, at least until the two phases have completely separated off, at the temperature of the test. The upper aqueous phase is then removed and then stirred and diluted for analysis of its salinity by a Metrohm Ion Chromatograph incorporating a suitable cation analysis column and a suitable anion analysis column. Similarly, the initial aqueous solution of NaCl at 0.4M is also analyzed by this ion chromatograph to determine its relative molar concentration in sodium and in chlorides. AN extractions and analyzes were duplicated.

Log P = format: physicochemical; details: for logP: Exp
[3] = methanol; cited from earlier work
[4] = NaCl extraction from 0.2M NaCl water by ASM/CEM composition, ion chromatography of treated water; details: dichloromethane instead of 3TFMPhOH
[5] = as above; details: ASM: 3TFMPhOH; CEM 0.2M; NaCl 0.2M water
Experimental: To 3 mL of 3-(trifluoromethyl)phenol, was added 217 mg of Dibenzo-18-crown-6 in order to obtain a formulation with 0.2 mole/L of DB18C6. This sealed formulation was then orbitally stirred at 500 rpm overnight after 1 mL of distilled water was added twice to allow water saturation of the whole.
The next morning, an aqueous 0.2 mol/L NaCl solution was prepared from twice distilled water, while the formulation that was stirred overnight was allowed to stand for decantation. A clear decantation of the two colorless phases is obtained in a few minutes. 3 mL of the organic extraction solution is then removed and transferred to a flask containing 3 mL of this salt water containing 0.2 M NaCl, then the flask is sealed and orbitally stirred (usually 500 rpm), for 3 hours and at room temperature. It is verified that droplets of the order of 1-2 mm are present in quantity at the selected stirring speed (400 to 900 rpm).
After stirring for 2 hours, stirring is stopped and the whole is left to stand for decantation for at least 10 minutes until the two phases are completely separated. The upper aqueous phase is then removed and then stirred and diluted for analysis of its salinity by a Metrohm Ion Chromatography Incorporating a suitable cation analysis column and a suitable anion analysis column. Similarly, the initial aqueous solution of 0.2M NaCl is also analyzed by this ion chromatography equipment to determine its relative concentration of sodium and chlorides. […]

[6] = methanol, published complexing constants; cited from earlier work
[7] = RT, CEM 0.3 Mol/L, ASM 0.3 Mol/L in CHCl3, 0.4 M NaCl

Compound | pKa (pKa in water at 25° C.) | solubility ([1]; water, read-out: Solubility in water) [µM] | Log P (Log P) | Solubility in water [1] [µM] | logP (Log P) | NaCl - 20° C. % ext (average) ([2]; 20° C., average molar extraction) [%] | Mol % Cl- extracted from the water to be treated ([2]; 60° C., CEM 0.3 Mol/L, ASM 0.3 Mol/L in CHCl3, 0.4 M NaCl) | NaCl - 60° C. % ext (average) ([2]; 60° C., average molar extraction) [%] | Mol % Cl- extracted from the water to be treated [2, 7] | Mol % Na+ extracted from the water to be treated [2, 7] | Δ % ext ([2]; difference 20° C. minus 60° C.) [%] | Log K(K+, MeOH, 25° C.) [3] | NaCl extraction with the ASM replaced by dichloromethane [4] [%] | Extraction rate at 23° C., Cl− [5] [%] | Extraction rate at 23° C., Na+ [5] [%] | Extraction rate at 23° C., mean NaCl [5] [%] | Log K(Na+, MeOH, 25° C.) [6]
OCc1cc(C(F)(F)F)cc(C(F)(F)F)c1 [ASM 3, [3,5-Bis(Trifluoromethyl)phenyl]methanol] | 14.7 | 2290 (≈ 559 µg/mL) |  |  |  | 7.9 | not detected | 0.0 | 8.2% and 8.8% | 6.8% and 7.6% | 7.9 |  |  |  |  |  | 
Oc1cccc(C(F)(F)F)c1 [ASM 1, 3-(Trifluoromethyl)phenol] | 8.68 |  | 2.95 |  |  |  |  |  |  |  |  |  |  |  |  |  | 

Now from value to compound, other results behind:

pKa (pKa in water at 25° C.) | solubility ([1]; water, read-out: Solubility in water) [µM] | Log P (Log P) | Solubility in water [1] [µM] | logP (Log P) | Compound | NaCl - 20° C. % ext (average) ([2]; 20° C., average molar extraction) [%] | Mol % Cl- extracted from the water to be treated ([2]; 60° C., CEM 0.3 Mol/L, ASM 0.3 Mol/L in CHCl3, 0.4 M NaCl) | NaCl - 60° C. % ext (average) ([2]; 60° C., average molar extraction) [%] | Mol % Cl- extracted from the water to be treated [2, 7] | Mol % Na+ extracted from the water to be treated [2, 7] | Δ % ext ([2]; difference 20° C. minus 60° C.) [%] | Log K(K+, MeOH, 25° C.) [3] | NaCl extraction with the ASM replaced by dichloromethane [4] [%] | Extraction rate at 23° C., Cl− [5] [%] | Extraction rate at 23° C., Na+ [5] [%] | Extraction rate at 23° C., mean NaCl [5] [%] | Log K(Na+, MeOH, 25° C.) [6]
 |  |  | 1100 (≈ 396 µg/mL) | 2.2 | c1ccc2c(c1)OCCOCCOc1ccccc1OCCOCCO2 [DB18C6, Dibenzo[b,k]-1,4,7,10,13,16-hexaoxacyclooctadecane] |  |  |  |  |  |  | 5.12 | ≤ 1.6 | 38.8 | 30.8 | 34.6 | 4.36-4.49
 |  |  |  | 2.11 | c1ccc2c(c1)OCCOCCOCCOc1ccccc1OCCOCCOCCO2 [DB24C8, 6,7,9,10,12,13,20,21,23,24,26,27-Dodecahydrodibenzo[b,n][1,4,7,10,13,16,19,22] octaoxacyclotetracosine] |  |  |  |  |  |  | 3.61 |  | 37.1 | 35.5 | 36.3 | 2.25 and 2.35
 |  |  |  | 0.91 | c1ccc2c(c1)OCCOCCOCCOCCO2 [B15C5, Benzo[b]-1,4,7,10,13-pentaoxa-cyclopentadecane] |  |  |  |  |  |  | 3.93 |  | 12.5 | 17.2 | 14.8 | 3.03
